Assay results reported in ChEMBL document CHEMBL5505985 (Eur J Med Chem, 2024).

How the values were obtained:
RAW264.7 [1] = assay: Cytotoxicity activity mouse RAW264.7 cells assessed as reduction in cell viability at 10 uM incubated for 48 hrs by MTT assay; format: toxicity, cell-based; details: raw264.7, 48 h
RAW264.7 [2] = assay: Cytotoxicity activity mouse RAW264.7 cells assessed as decrease in survival rate at 50 uM incubated for 48 hrs by MTT assay; format: toxicity, cell-based; details: raw264.7, 48 h
[3] = target: T1, Prostaglandin G/H synthase 2 (Homo sapiens) (UniProt P35354); assay: Inhibition of human recombinant COX-2 using arachidonic acid as substrate at 10 uM pretreated for 5 mins followed by substrate addition and measured after 2 mins by fluorescence based analysis relative to control; details: time 7.0 min
T1 sequence (whole entry): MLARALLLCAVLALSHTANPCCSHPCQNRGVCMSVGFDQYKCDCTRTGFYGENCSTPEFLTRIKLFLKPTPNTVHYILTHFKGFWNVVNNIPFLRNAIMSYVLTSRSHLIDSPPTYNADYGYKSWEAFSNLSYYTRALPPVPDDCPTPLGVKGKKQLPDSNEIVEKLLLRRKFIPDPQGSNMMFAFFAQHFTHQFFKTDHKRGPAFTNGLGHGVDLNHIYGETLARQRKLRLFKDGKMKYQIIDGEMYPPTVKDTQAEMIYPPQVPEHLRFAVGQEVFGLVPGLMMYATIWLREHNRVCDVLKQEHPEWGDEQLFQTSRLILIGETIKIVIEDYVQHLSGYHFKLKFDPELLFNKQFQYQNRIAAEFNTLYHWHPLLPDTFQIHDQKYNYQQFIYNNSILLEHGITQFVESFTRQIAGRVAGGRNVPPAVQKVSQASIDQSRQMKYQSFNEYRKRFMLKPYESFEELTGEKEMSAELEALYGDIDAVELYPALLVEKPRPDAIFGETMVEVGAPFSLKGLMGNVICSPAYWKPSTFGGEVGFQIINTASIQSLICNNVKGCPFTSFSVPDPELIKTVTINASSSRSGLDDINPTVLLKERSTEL

| Structure (SMILES) | Activity (RAW264.7 [1]) | Activity (RAW264.7 [2]) | inhibition [3] [%] |
| --- | --- | --- | --- |
| COc1cccc(C2=Nn3c(Cc4ccccc4Nc4c(Cl)cccc4Cl)nnc3SC2)c1 | Non-Toxic | – | – |
| Clc1ccc(C2=Nn3c(Cc4ccccc4Nc4c(Cl)cccc4Cl)nnc3SC2)cc1 | Non-Toxic | Toxic | – |
| Clc1cccc(Cl)c1Nc1ccccc1Cc1nnc2n1N=C(c1ccc(Br)cc1)CS2 | Non-Toxic | – | – |
| CCSc1nnc(Cc2ccccc2Nc2c(Cl)cccc2Cl)o1 | Non-Toxic | – | – |
| CCCCSc1nnc(Cc2ccccc2Nc2c(Cl)cccc2Cl)o1 | Non-Toxic | – | – |
| Fc1ccc(CSc2nnc(Cc3ccccc3Nc3c(Cl)cccc3Cl)o2)c(F)c1 | Non-Toxic | – | – |
| Clc1cccc(Cl)c1Nc1ccccc1Cc1nnc(SCc2cccc(Br)c2)o1 | Non-Toxic | – | – |
| Fc1cccc(CSc2nnc(Cc3ccccc3Nc3c(Cl)cccc3Cl)o2)c1 | Non-Toxic | – | – |
| Clc1ccccc1CSc1nnc(Cc2ccccc2Nc2c(Cl)cccc2Cl)o1 | Non-Toxic | – | < 30 |
| Cc1cccc(CSc2nnc(Cc3ccccc3Nc3c(Cl)cccc3Cl)o2)c1 | Non-Toxic | – | – |
| CSc1nnc(Cc2ccccc2Nc2c(Cl)cccc2Cl)o1 | Non-Toxic | – | – |
| Clc1cccc(Cl)c1Nc1ccccc1Cc1nnc2n1N=C(c1ccccc1Br)CS2 | Non-Toxic | – | – |
| CC(C)Sc1nnc(Cc2ccccc2Nc2c(Cl)cccc2Cl)o1 | Non-Toxic | – | – |
| O=C(Cc1ccccc1Nc1c(Cl)cccc1Cl)NN1C(=O)CCC1=O | Non-Toxic | – | – |
| O=C(Cc1ccccc1Nc1c(Cl)cccc1Cl)NN1C(=O)c2ccccc2C1=O | Non-Toxic | Toxic | – |
| Clc1cccc(Cl)c1Nc1ccccc1Cc1nnc(SCc2ccncc2)o1 | Non-Toxic | Toxic | – |
| Clc1cccc(Cl)c1Nc1ccccc1Cc1nnc(SC2CCCCC2)o1 | Non-Toxic | – | – |
| Fc1ccc(C2=Nn3c(Cc4ccccc4Nc4c(Cl)cccc4Cl)nnc3SC2)cc1 | Non-Toxic | Toxic | – |
| Fc1ccccc1CSc1nnc(Cc2ccccc2Nc2c(Cl)cccc2Cl)o1 | Non-Toxic | – | – |

| Structure (SMILES) | Activity (RAW264.7 [1]) | Activity (RAW264.7 [2]) | inhibition [3] [%] |
| --- | --- | --- | --- |
| Clc1cccc(C2=Nn3c(Cc4ccccc4Nc4c(Cl)cccc4Cl)nnc3SC2)c1 | Non-Toxic | Toxic | – |
| Clc1cccc(Cl)c1Nc1ccccc1Cc1nnc(SCc2ccc(Br)cc2)o1 | Non-Toxic | – | – |
| N#Cc1ccc(CSc2nnc(Cc3ccccc3Nc3c(Cl)cccc3Cl)o2)cc1 | Non-Toxic | – | – |
| Clc1cccc(CSc2nnc(Cc3ccccc3Nc3c(Cl)cccc3Cl)o2)c1 | Non-Toxic | – | < 30 |
| Clc1cccc(Cl)c1Nc1ccccc1Cc1nnc(SCc2ccccc2)o1 | Non-Toxic | – | – |
| Clc1cccc(Cl)c1Nc1ccccc1Cc1nnc2n1N=C(c1cccc(Br)c1)CS2 | Non-Toxic | Toxic | – |
| Fc1cccc(C2=Nn3c(Cc4ccccc4Nc4c(Cl)cccc4Cl)nnc3SC2)c1 | Non-Toxic | – | – |
| Clc1cccc(Cl)c1Nc1ccccc1Cc1nnc(SCC2CCCCC2)o1 | Non-Toxic | – | – |
| Fc1ccc(CSc2nnc(Cc3ccccc3Nc3c(Cl)cccc3Cl)o2)cc1 | Non-Toxic | – | – |
| O=[N+]([O-])c1ccccc1C1=Nn2c(Cc3ccccc3Nc3c(Cl)cccc3Cl)nnc2SC1 | Non-Toxic | – | – |
| COc1ccc(CSc2nnc(Cc3ccccc3Nc3c(Cl)cccc3Cl)o2)cc1 | Non-Toxic | – | – |
| COc1ccc(C2=Nn3c(Cc4ccccc4Nc4c(Cl)cccc4Cl)nnc3SC2)cc1 | Non-Toxic | – | – |
| Clc1ccc(CSc2nnc(Cc3ccccc3Nc3c(Cl)cccc3Cl)o2)cc1 | Non-Toxic | – | < 30 |
| Clc1cccc(Cl)c1Nc1ccccc1Cc1nnc2n1N=C(c1ccccc1)CS2 | Non-Toxic | – | – |
| Cc1ccc(CSc2nnc(Cc3ccccc3Nc3c(Cl)cccc3Cl)o2)cc1 | Non-Toxic | – | – |
| O=[N+]([O-])c1ccc(C2=Nn3c(Cc4ccccc4Nc4c(Cl)cccc4Cl)nnc3SC2)cc1 | Non-Toxic | – | – |
| Cc1ccccc1CSc1nnc(Cc2ccccc2Nc2c(Cl)cccc2Cl)o1 | Non-Toxic | – | – |
| CCCSc1nnc(Cc2ccccc2Nc2c(Cl)cccc2Cl)o1 | Non-Toxic | – | – |
